# Results as given in patent publication US6858399B2, “Test for oxidative stress using cell suspensions” (priority 1998, dated 2005).
# B1: CAT: catalase (protein, UniProt P00432 2-527, looked up)
# Catalase: ADNRDPASDQMKHWKEQRAAQKPDVLTTGGGNPVGDKLNSLTVGPRGPLLVQDVVFTDEMAHFDRERIPERVVHAKGAGAFGYFEVTHDITRYSKAKVFEHIGKRTPIAVRFSTVAGESGSADTVRDPRGFAVKFYTEDGNWDLVGNNTPIFFIRDALLFPSFIHSQKRNPQTHLKDPDMVWDFWSLRPESLHQVSFLFSDRGIPDGHRHMNGYGSHTFKLVNANGEAVYCKFHYKTDQGIKNLSVEDAARLAHEDPDYGLRDLFNAIATGNYPSWTLYIQVMTFSEAEIFPFNPFDLTKVWPHGDYPLIPVGKLVLNRNPVNYFAEVEQLAFDPSNMPPGIEPSPDKMLQGRLFAYPDTHRHRLGPNYLQIPVNCPYRARVANYQRDGPMCMMDNQGGAPNYYPNSFSAPEHQPSALEHRTHFSGDVQRFNSANDDNVTQVRTFYLKVLNEEQRKRLCENIAGHLKDAQLFIQKKAVKNFSDVHPEYGSRIQALLDKYNEEKPKNAVHTYVQHGSHLSAREKANL
# Tests used:
# brain cell fractions = test: PC biosynthesis of brain cell fractions; type: cell-based; conditions: brain cell fractions incubated 30 minutes; agent concentration (100 mM ethanol, 1 mM others)
# Method: (§1) PC extraction procedure: Two ml of chloroform and 0.5 ml of water were added to each sample. Tubes were vortexed and centrifuged for 5 minutes to clear the upper and lower phases. The upper phase was aspirated and the lower phase washed by adding 2 ml of wash solution containing 50% methanol, 45% water and 5% 7.4% KCl. The samples were vortexed and centrifuged 5 minutes to clear the upper and lower phases. The upper phase was aspirated and the lower phase was washed again in 2 ml wash solution. After the phases were cleared by centrifugation, the lower phase was carefully removed, placed in a glass test tube, dried, solubilized in scintillation fluid and counted in a Beckman beta counter. Agent-induced alterations in the incorporation of labeled choline into PC was used as a measure of changes in cellular PC biosynthesis.
# (§2) PC biosynthesis in isolated cells: Aliquots (0.75 ml) of Waymouth 752/1 media were placed in glass test tubes. Aliquots (0.01) of DMSO and water or DMSO and water containing various test agents were added to the tubes along with 0.02 ml [^3H]-choline [0.2 μCi and 15 pmoles choline]. Incubations were started by adding 0.5 ml aliquotes of cells suspended in Waymouth 752/1 media to the test tubes and placing the tubes in a shaking water bath at 37° C. Incubations were stopped after the appropriate incubation period (2-90 minutes) by addition of 2 ml of methanol containing 1% 1N HCl. Labeled PC was extracted by methods described above for cultured cells. Agent-induced increases in the incorporation of labeled choline into PC were used to measure increases in cellular PC biosynthesis.
# Cells were isolated from brain homogenates according to the methods described in the methodology section under “PC biosynthesis in isolated cells”.
# cultured liver cells = test: PC biosynthesis of cultured liver cells incubated 24 and 72 hours with and without vitamin E phosphate; type: cell-based; conditions: 24 and 72 hours with and without 50 μM vitamin E phosphate
# Method: After the appropriate agent-incubation period, a 0.02 ml aliquot of [^3H]-choline (0.2 μCi and 15 pmoles of choline]) was added to Waymouth 752/1 {1.25 ml} media. […] Cells were removed from the culture dishes by scraping with TEFLON™-coated spatula and placed in glass test tubes. (Lamb, et al., Hepatology 19: 174 (1994))
# Alterations in PC biosynthesis were studied using cultured liver cells incubated 24 and 72 hours with and without 50 μM vitamin E phosphate (VEP).
# cultured hepatocytes = test: PC biosynthesis in primary cultures of adult rat hepatocytes, 72 h incubation; type: cell-based; conditions: for Effect on the ethanol/acetaminophen-induced decrease in cellular PC biosynthesis / Change in cellular PC biosynthesis: 72 hours; for Effect on the ethanol/acetaminophen-induced decrease in cellular PC biosynthesis: co-incubation with 100 mM ethanol or 1 mM acetaminophen; for Change in cellular PC biosynthesis: 100 mM ethanol, 1 mM acetaminophen
# Method: Male sprague Dawley rats (Zivic-Miller) weighing 200 to 350 grams were treated with a 50 mg/kg dose of phenobarbital (ip) for 3 days prior to perfusion. During this 3 day period, the animals were also given water ad libitum containing 0.1% sodium phenobarbital. The animal was anesthetized with ether under a fume hood, then transferred to the surgical table with the abdomen exposed. The belly was shaved and cleansed with 70% ethanol and Clinidine. The abdominal skin was removed with scissors and forceps. An incision was made along the base of the abdomen and the renal artery was tied off.
# After the hepatic vein was cannulated with a 16 gauge catheter, the liver was washed with a balanced salt solution containing EDTA and Tricine. The hepatic artery was cannulated with a 16 gauge catheter. After 5 minutes of reverse flow perfusion was practiced to facilitate the wash cycle. After the blood is washed from the liver, the color of the liver changes from deep red to a brownish color.
# The liver was then infused with Collagenase solution (112.5 mg/300 ml of Waymouth 752/1 media) bubbled with 5% CO2. After 5 minutes, reverse flow of Collagenase into the liver was accomplished, followed by reverse to normal flow after 5 minutes. Normal flow was continued until liver tissue was breaking down and ready for collection. Complete liver wash and perfusion should take about 30 minutes.
# The perfused liver was collected with a strainer and transferred to an Erlenmeyer flask containing 50 ml of original Collagenase solution. The liver was minced using a gyratory water bath at 37° C. and allowed to swirl for no longer than 15 minutes. The solution was then filtered through a sterile gauze into centrifuge tubes and spun in a table top centrifuge for 5 minutes at 1000 rpm. (70×g). Aspirate media and suspended cells were placed in Waymouth 752/1 media containing 20% isodensity Percol and were then centrifuged for 4 minutes at 70×g. Cells were washed three times and resuspended in Waymouth 752/1 media. Samples of 0.5 ml were plated on 35 mm collagen-coated plastic culture dishes containing 0.75 ml of supplemented Waymouth 752/1 media.
# (§3) PC biosynthesis in cultured cells: Aliquots (0.01 ml) of DMSO and water or DMSO and water containing various agents were added to medium with 2-hour monolayers of cells. After the appropriate agent-incubation period, a 0.02 ml aliquot of [^3H]-choline (0.2 μCi and 15 pmoles of choline]) was added to Waymouth 752/1 {1.25 ml} media. Incubations were stopped after 90 minutes by addition of 2 ml of methanol containing 1% 1N HCl. Cells were removed from the culture dishes by scraping with TEFLON™-coated spatula and placed in glass test tubes. (Lamb, et al., Hepatology 19: 174 (1994))
# as §1
# human liver cells = test: PC biosynthesis of human liver cells (labeled choline incorporation into PC); type: cell-based; conditions: for Alteration in cellular PC biosynthesis: human liver cells incubated 90 minutes, 100 mM ethanol or 1 mM acetaminophen
# Method: as §3, §1
# as §2, with “Agent-induced increases in the incorporation of labeled choline into PC were used to measure increases in cellular PC biosynthesis.” left out
# rat liver cells = test: PC biosynthesis of rat liver cells (labeled choline incorporation into PC); type: cell-based; conditions: for Alteration in cellular PC biosynthesis: rat liver cells incubated 90 minutes, 100 mM ethanol or 1 mM acetaminophen
# cultured rat liver cells = test: PC biosynthesis of cultured rat liver cells from 3 and 20 month-old rats, 24 h; type: cell-based; conditions: 1 mM APAP, 100 mM ETOH, mean ± SEM of nine values; for PC biosynthesis, 3 Month: cells from 3 month-old male rats; for PC biosynthesis, 20 Month: cells from 20 month-old male rats
# Method: as §3, §1
# cultured astrocyte = test: Cultured astrocyte PC biosynthesis; type: cell-based; conditions: for PC biosynthesis, Percent control of + SEM: cultured astrocytes, 100 mM ethanol, 1 mM APAP, 1 mM THC, 1 mM 4-MP, alone or combined
# rat red blood cells = test: Rat RBC PC biosynthesis; type: cell-based; conditions: rat RBC's, 10 minutes incubation
# human red blood cells = test: PC biosynthesis of human RBC's; type: cell-based; conditions: for PC biosynthesis percent of control ± SEM: 30 minutes incubation, 100 mM ethanol, 1 mM APAP, 1 mM THC, 10 mM allyl alcohol, 1 mM cocaine, 1 mM BTM, with and without 4-MP
# [1] = tested on: cells isolated from rat lung; test: PC biosynthesis in cells isolated from rat lung; type: cell-based; conditions: 1 mM APAP, 30 minutes
# [2] = tested on: cells isolated from rat intestine; test: PC biosynthesis in cells isolated from rat intestine; type: cell-based; conditions: 1 mM APAP, 30 minutes
# erythrocytes [3] = test: PC biosynthesis in cells isolated from rat blood (erythrocytes); type: cell-based; conditions: 1 mM APAP, 30 minutes
# Method: Preparation of red cell fractions: Rat or human blood was placed in Sorval tubes and, centrifuged at 3000 rpm for 10 minutes under refrigeration. The supernate was removed and the pellet of RBC's resuspended in PBS at 4 times the volume of the supernate. This may be frozen in 2 ml aliquots at −70° C.
# erythrocytes [4] = conditions: Ferrali, et al, Biochem Pharm. 38, 1819-1825 (1989); cited from earlier work
molecule,measurement,setting,value
O=S(=O)([O-])[O-].[Fe+2] [FeSO4],"Agent-induced alterations in PC biosynthesis, Percent control of + SEM",brain cell fractions,226 ± 8 Percent control
Cc1c(C)c2c(c(C)c1OP(=O)(O)O)CCC(C)(CCCC(C)CCCC(C)CCCC(C)C)O2 (stereo not drawn) [vitamin E phosphate],Alterations in PC biosynthesis,cultured liver cells,incubation time-dependent decreases in PC biosynthesis unless vitamin E phosphate was added
"Cc1c(C)c2c(c(C)c1OC(=O)CCC(=O)O)CC[C@@](C)(CCC[C@H](C)CCC[C@H](C)CCCC(C)C)O2 [VES, vitamin E succinate]",Effect on the ethanol/acetaminophen-induced decrease in cellular PC biosynthesis,cultured hepatocytes,reduced
"CC(=O)Nc1ccc(O)cc1 [APAP, acetaminophen]",Alteration in cellular PC biosynthesis,human liver cells,significantly (p<0.05) increase
same,Alteration in cellular PC biosynthesis,rat liver cells,significantly (p<0.05) increased
same,Change in cellular PC biosynthesis,cultured hepatocytes,significant decrease
same,"PC biosynthesis, 3 Month",cultured rat liver cells,137 ± 11% of control
same,"PC biosynthesis, 20 Month",cultured rat liver cells,38 ± 2% of control
same,"PC biosynthesis, Percent control of + SEM",cultured astrocyte,159 ± 15 Percent control
same,PC biosynthesis % of Control ± SEM,rat red blood cells,655 ± 26 % of Control
same,PC biosynthesis percent of control ± SEM,human red blood cells,512 ± 27% of control
same,"PC biosynthesis percent of control ± SEM, lung",[1],471 ± 38% of control
same,"PC biosynthesis percent of control ± SEM, intestine",[2],287 ± 13% of control
same,"PC biosynthesis percent of control ± SEM, erythrocytes",erythrocytes [3],236 ± 13% of control
"ClC(Cl)(Cl)Br [BTM, bromotrichloromethane]","Agent-induced alterations in PC biosynthesis, Percent control of + SEM",brain cell fractions,194 ± 25 Percent control
same,PC biosynthesis % of Control ± SEM,rat red blood cells,533 ± 29 % of Control
same,PC biosynthesis percent of control ± SEM,human red blood cells,728 ± 3% of control
"Cc1cn[nH]c1 [4-MP, 4-methylpyrazole]",Effect on ethanol and acetaminophen-induced increases in cellular PC biosynthesis,"human liver cells; 1 mM 4-methylpyrazole, 90 minutes, with 100 mM ethanol or 1 mM acetaminophen",significantly decreases
same,Effect on ethanol-induced and acetaminophen-induced increases in cellular biosynthesis,"rat liver cells; 4-methylpyrazole, 90 minutes, with 100 mM ethanol or 1 mM acetaminophen",significantly reduced
same,Effect on the ethanol/acetaminophen-induced decrease in cellular PC biosynthesis,cultured hepatocytes,reduced
same,Effect on agent-induced increase in PC biosynthesis,"cultured astrocyte; 1 mM 4-MP with ethanol, APAP, THC or combinations",Å values without 4-MP are significantly increased (p < 0.05) above controls. 4-MP significantly reduced (p < 0.05) the agent-induced increase in PC biosynthesis.
same,Effect on drug-induced increases in PC biosynthesis,"human red blood cells; 30 minutes, 4-MP added to each agent",significantly (p<0.05) reduces
CCO [ethanol],Alteration in cellular PC biosynthesis,human liver cells,significantly (p<0.05) increase
same,Alteration in cellular PC biosynthesis,rat liver cells,significantly (p<0.05) increased
same,PC biosynthesis,"cultured hepatocytes; 72 h, 100 mM ETOH, 1 mM APAP, 0.5 mM 4-MP, 200 units SOD, 800 units CAT, 2 mM DEF, 0.025 mM 20:4, 0.25 mM 16:0, 6-9 experimental values",39 ± 2% of control
same,Change in cellular PC biosynthesis,cultured hepatocytes,significant decrease
same,"PC biosynthesis, 3 Month",cultured rat liver cells,147 ± 13% of control
same,"PC biosynthesis, 20 Month",cultured rat liver cells,59 ± 1% of control
same,"Agent-induced alterations in PC biosynthesis, Percent control of + SEM",brain cell fractions,173 ± 8 Percent control
same,"PC biosynthesis, Percent control of + SEM",cultured astrocyte,199 ± 14 Percent control
same,PC biosynthesis % of Control ± SEM,rat red blood cells,374 ± 19 % of Control
same,PC biosynthesis percent of control ± SEM,human red blood cells,222 ± 9% of control
iron,PC biosynthesis % of Control ± SEM,rat red blood cells,919 ± 73 % of Control
"CCCCCc1cc(O)c2c(c1)OC(C)(C)[C@@H]1CCC(C)=C[C@@H]21 [THC, Δ-9-tetrahydrocannabinol]","Agent-induced alterations in PC biosynthesis, Percent control of + SEM",brain cell fractions,293 ± 21 Percent control
same,"PC biosynthesis, Percent control of + SEM",cultured astrocyte,201 ± 11 Percent control
same,PC biosynthesis % of Control ± SEM,rat red blood cells,1142 ± 65 % of Control
same,PC biosynthesis percent of control ± SEM,human red blood cells,433 ± 30% of control
C=CC(=O)O [acrylic acid],Adverse effects on erythrocytes,erythrocytes [4],could not demonstrate the adverse effects
COC(=O)[C@H]1[C@@H](OC(=O)c2ccccc2)C[C@@H]2CC[C@H]1N2C [cocaine],PC biosynthesis % of Control ± SEM,rat red blood cells,458 ± 7 % of Control
same,PC biosynthesis percent of control ± SEM,human red blood cells,292 ± 10% of control
C=CC=O [acreolein],Adverse effects on erythrocytes,erythrocytes [4],deleterious effects on the cells
C=CCO [allyl alcohol],PC biosynthesis % of Control ± SEM,rat red blood cells,1315 ± 99 % of Control
same,PC biosynthesis percent of control ± SEM,human red blood cells,377 ± 3% of control
same,Adverse effects on erythrocytes,erythrocytes [4],could not demonstrate the adverse effects
B1,Effect on the ethanol/acetaminophen-induced decrease in cellular PC biosynthesis,cultured hepatocytes,reduced
